Measurements taken from patent US20120077836A1, “METHODS OF ADMINISTERING (4AR,10AR)-1-N-PROPYL-1,2,3,4,4A,5,10,10A-OCTAHYDROBENZO [G] QUINOLINE-6,7-DIOL AND RELATED COMPOUNDS ACROSS THE ORAL MUCOSA, THE NASAL MUCOSA OR THE SKIN AND PHARMACEUTICAL COMPOSITIONS THEREOF” (priority 2009, published 2012).
Structures can show the parent of a compound that is named as a salt.

Legend:
[1] = target: T1, hD5-transfected CHO-Ga16 cells (Homo sapiens, UniProt P21918); experiment: D5 assay, intracellular Ca2+ release (FLIPR); format: cell-based
T1 construct: expressed in transfected cells; host or cells: CHO-Ga16 cells

[2] = tested on: MPTP treated marmosets; experiment: Anti-parkinsonian effects in MPTP-treated common marmosets; format: in vivo, common marmoset; set-up: disability score (120 min) / disability score (180 min) / disability score (240 min) / disability score (300 min) / disability score (360 min) / disability score (420 min) / disability score (60 min): scale not given here
Experimental: The experiments were conducted using 6 MPTP treated marmosets (2.0 mg/kg daily for up to 5 consecutive days dissolved in sterile 0.9% saline solution). All the animals had previously been treated with L-DOPA (12.5 mg/kg p.o., plus carbidopa 12.5 mg/kg p.o.) administered daily for up to 30 days in order to induce dyskinesia. […] Domperidone was administered 60 min before any of the test compounds. Domperidone is an antidopaminergic drug that suppresses nausea and vomiting. Locomotor activity was assessed using test cages that are comprised of 8 photo-electric switches comprised of 8 infra-red beams which are strategically placed in the cage and interruption of a beam is recorded as one count. […] The assessment of motor disability was performed by a trained observer blinded to the treatment.
The dose chosen for this challenge is at the top of the dose response curve for this drug.

T1 sequence (P21918 whole entry): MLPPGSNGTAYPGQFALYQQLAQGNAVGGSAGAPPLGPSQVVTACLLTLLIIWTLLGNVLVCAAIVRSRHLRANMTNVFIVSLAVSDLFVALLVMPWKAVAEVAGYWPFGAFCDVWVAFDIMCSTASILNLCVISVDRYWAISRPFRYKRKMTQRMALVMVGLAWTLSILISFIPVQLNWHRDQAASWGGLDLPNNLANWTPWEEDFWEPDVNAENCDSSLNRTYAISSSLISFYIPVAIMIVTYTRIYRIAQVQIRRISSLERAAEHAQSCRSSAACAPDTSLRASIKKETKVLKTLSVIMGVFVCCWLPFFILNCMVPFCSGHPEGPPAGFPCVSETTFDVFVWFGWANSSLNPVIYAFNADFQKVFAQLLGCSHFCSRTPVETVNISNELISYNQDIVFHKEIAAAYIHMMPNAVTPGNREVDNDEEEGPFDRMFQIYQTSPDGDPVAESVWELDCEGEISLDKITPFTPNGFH

CCCN1CCC[C@@H]2Cc3c(ccc(O)c3O)C[C@H]21 [compound 10, (4aR,10aR)-1-n-Propyl-1,2,3,4,4a,5,10,10a-octahydro-benzo[g]quinoline-6,7-diol hydrobromide]
EC50 [1]: 0.06 nM | Emax ([1]; CHO-Ga16, read-out: intrinsic activity (efficacy)): 95% | disability score (60 min) ([2]; 0.001 mg/kg SC): 14.3 | disability score (120 min) ([2]; 0.001 mg/kg SC): 2.3 | disability score (180 min) ([2]; 0.001 mg/kg SC): 2.5 | disability score (240 min) ([2]; 0.001 mg/kg SC): 3.0 | disability score (300 min) ([2]; 0.001 mg/kg SC): 2.5 | disability score (360 min) ([2]; 0.001 mg/kg SC): 6.5 | disability score (420 min) ([2]; 0.001 mg/kg SC): 8.5 | disability score (60 min) ([2]; 0.01 mg/kg SC): 10.0 | disability score (120 min) ([2]; 0.01 mg/kg SC): 2.2 | disability score (180 min) ([2]; 0.01 mg/kg SC): 2.0 | disability score (240 min) ([2]; 0.01 mg/kg SC): 2.2 | disability score (300 min) ([2]; 0.01 mg/kg SC): 2.7 | disability score (360 min) ([2]; 0.01 mg/kg SC): 2.3 | disability score (420 min) ([2]; 0.01 mg/kg SC): 2.7 | effect on locomotor activity and motor disability ([2]; L-DOPA 12.5 mg/kg p.o., compound 10 0.001 or 0.01 mg/kg SC): dose-related increase in locomotor activity and reversal of motor disability
